The text below walks through data of US20090175788A1, “RADIOLABELLED LIGAND FOR THE GLYCINE 1 TRANSPORTER” (priority 2006, published 2009).

The target in data set [1] is T1, glycine transporter subtype 1 (GlyT1) (Sus scrofa, UniProt A0A287AJD7).
T1 construct: from tissue; host or cells: brain of living anaesthetised pig (Yorkshire/Danish Landrace), in vivo PET
The experiment in a line: PET imaging with Compound A in pig brain. Type of data set: in vivo. The method, then:
(§1) The animals (pig, Yorkshire/Danish Landrace (˜40 Kg; n=2) were housed singly in thermostatically controlled (20° C.) and naturally illuminated stalls. They were scanned under terminal anaesthesia (ketamine induced isoflurane anaesthesia) on different days. The left femoral artery and vein of each animal were surgically cannulated using catheters (Avanti® size 4F-7F). Blood samples were collected from the femoral artery and the radiolabelled and non-labelled agents were injected into the femoral vein. Animals were placed supine in a Siemens ECAT EXACT HR tomograph, with the head immobilised in a custom-made holding device. During the study, blood pH, pCO2 and pO2 levels were monitored and maintained within the normal physiological range. In addition, BP and heart rate were recorded throughout the study. Compound A was administered intravenously into the femoral vein as a 1 minute bolus injection. PET scanning and arterial blood sampling was commenced upon start of the radioligand administration.
(§2) The PET data were analysed by using tracer kinetic modeling techniques to derive estimates of the tissue delivery (K1) and partition coefficient (PET volume of distribution—Vd). An input function representing the concentration of unchanged radiotracer in plasma was generated using discrete measures of the total plasma radioactivity and HPLC measures determining the parent radiotracer fraction. A generic tracer kinetic model (DEPICT) which estimates the tissues impulse response function was fitted to each of the individual tissue time activity curves to derive the appropriate parameters for each region (K1,Vd) (R. N. Gunn, S. R. Gunn, V. J. Cunningham. Cereb Blood Flow Metab. 2001, 21(6), 635-52; R. N. Gunn, S. R. Gunn, F. E. Turkheimer, J. A. Aston, V. J. Cunningham. J Cereb Blood Flow Metab. 2002, 22(12), 1425-39).

Data set [2] deals with T1, glycine transporter subtype 1 (GlyT1). The experiment in a line: PET imaging with pharmacological challenges (blocking of Compound A uptake by a selective GlyT1 inhibitor). The note with it: pig. Type of data set: in vivo. The method, then: as §1
In a first study, two sequential high specific activity iv radioligand Compound A administrations were performed in same animal on the same day.
as §2

T1 sequence (A0A287AJD7 1-654): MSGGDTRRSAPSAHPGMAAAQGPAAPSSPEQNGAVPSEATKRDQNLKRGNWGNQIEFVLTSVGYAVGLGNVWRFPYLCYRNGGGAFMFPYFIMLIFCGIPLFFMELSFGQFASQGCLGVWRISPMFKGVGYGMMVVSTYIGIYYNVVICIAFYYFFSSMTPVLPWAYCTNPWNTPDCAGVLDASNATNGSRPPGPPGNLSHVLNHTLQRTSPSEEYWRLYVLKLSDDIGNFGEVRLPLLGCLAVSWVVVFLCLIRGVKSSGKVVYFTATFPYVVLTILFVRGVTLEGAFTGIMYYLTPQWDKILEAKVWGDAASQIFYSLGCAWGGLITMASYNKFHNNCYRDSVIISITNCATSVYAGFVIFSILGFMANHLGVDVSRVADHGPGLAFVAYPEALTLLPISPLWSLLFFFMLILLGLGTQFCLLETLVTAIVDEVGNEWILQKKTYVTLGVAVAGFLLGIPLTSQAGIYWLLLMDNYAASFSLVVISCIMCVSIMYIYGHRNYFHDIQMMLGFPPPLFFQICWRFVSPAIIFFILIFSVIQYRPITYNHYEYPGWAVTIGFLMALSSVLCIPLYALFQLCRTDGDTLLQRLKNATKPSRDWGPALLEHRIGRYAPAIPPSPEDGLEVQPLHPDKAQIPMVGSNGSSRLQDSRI

For the compound `Cc1cccc(C)c1C(=O)NC(c1ccccc1)C1(N(C)[11CH3])CCCC1` (stereo not drawn) [Compound A, [^11C—N-methyl]-N-[[1-(dimethylamino)cyclopentyl](phenyl)methyl]-2,6-dimethylbenzamide], the regional brain distribution result in data set [1] (pig brain, PET, compared with the known distribution of GlyT1) is “higher accumulation in mid-brain, thalamus and cerebellum compared to cortical regions”. Besides, the “time of peak brain uptake of radioactivity after administration” value in data set [1] (pig brain, iv, PET) was found to be 25 min. Also, in data set [1] (pig, iv 1 minute bolus, PET 0 to 90 min), the “brain entry of radiotracer” value is “readily enters the pig brain”. In addition, in data set [1] (pig, stable across brain regions, tracer kinetic model (DEPICT)), the “Extraction fraction (K1)” value was determined as 0.06 min⁻¹.
On to `CN1CCCC[C@H]1[C@@H](NC(=O)c1cccc(C(F)(F)F)c1Cl)c1ccccc1` [2-chloro-N—[(S)-[(2S)-1-methyl-2-piperidinyl](phenyl)methyl]-3-(trifluoromethyl)benzamide], for which the “effect on Compound A uptake in the brain” value in data set [2] (escalating iv doses 0.001, 0.01 and 0.1 mg/kg, 5 min prior to Compound A) is listed as “dose-dependent decrease of compound A uptake in the brain”. The “GlyT1 saturation (occupancy)” value in data set [2] (high dose 0.5 mg/kg iv) was “near complete GlyT1 saturation”. Also, the “effect on specific uptake of radiotracer Compound A” value in data set [2] (high iv dose 0.5 mg/kg, 5 minutes prior to Compound A) was “the specific uptake of radiotracer was blocked”. In data set [2] (increasing iv doses, PET, read-out: intravenous ED50 (change in Compound A derived Vd)), the ED50 came out at 0.0225 mg/kg. Further, in data set [2] (iv pretreatment), the “effect of pretreatment on K1 of Compound A” value is on record as “not altered”.

Usually ED50 stands for the midpoint of the dose-response relation.
